Measured values reported in patent US20230085307A1, “PYRIDAZINONE COMPOUND AND HERBICIDE” (NISSAN CHEMICAL CORPORATION, priority 2019, published 2023).

Key:
oval-leafed pondweed = experiment: Test Example 1: herbicidal activity, application before weed generation under submerged conditions (Table 16, symbol C); type: in vivo, oval-leafed pondweed (Monochoria vaginalis); conditions: amount of applied herbicide 320 g/ha
Procedure, shortened: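 Alluvial soil was flooded to 4 cm depth, weed seeds were sown mixed and 2.5-leaf rice seedlings were transplanted. On sowing day, the compound's emulsion, diluted in water to a set dose, was applied to the water surface. Plants grew at 25–30 °C and were scored 0–5 after three weeks.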

barnyard grass [1] = experiment: Test Example 3: herbicidal effect by foliage application, Wagner pot (Table 18, symbol H); type: in vivo, barnyard grass (Echinochloa crus-galli); conditions: for Herbicidal effect on H (barnyard grass), foliage application: amount of applied herbicide 320 g/ha
Procedure, shortened: (§1)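 Plants were sown in alluvial soil held under 0.1–0.5 cm standing water and grown 14 days in a greenhouse at 25–30 °C. An emulsifiable formulation, water-diluted to the set dose, was then sprayed onto the foliage, and effects were scored three weeks later using previously defined criteria.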

lambsquarters = experiment: Test Example 5: herbicidal effect by foliage application, plastic box (Table 20, symbol O); type: in vivo, lambsquarters (Chenopodium album); conditions: foliage application, 320 g/ha; for herbicidal effect on lambsquarters (O): three weeks after application
Procedure, shortened: (§2)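 Post-emergence foliar test in sterilized diluvial soil. Compound applied as water-diluted emulsion at a predetermined rate to 14-day-old plants; evaluation at three weeks.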

barnyard grass [2] = experiment: Test Example 4: herbicidal effect by soil treatment (Table 19, symbol H); type: in vivo, barnyard grass (Echinochloa crus-galli); conditions: amount of applied herbicide 320 g/ha
Procedure, shortened: (§3)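 Scoring uses the grading scale of an earlier test, three weeks post-application. Treatment consists of spraying a diluted emulsion formulation across the surface of sterilized diluvial soil in which seeds are buried near 1.5 cm deep; boxes are kept in a greenhouse between 25° C. and 30° C.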

persian speedwell = experiment: Test Example 5: herbicidal effect by foliage application, plastic box (Table 20, symbol R); type: in vivo, Persian speedwell (Veronica persica); conditions: foliage application, 320 g/ha; for herbicidal effect on persian speedwell (R): three weeks after application
Procedure, shortened: as §2

chickweed = experiment: Test Example 4: herbicidal effect by soil treatment (Table 19, symbol P); type: in vivo, common chickweed (Stellaria media); conditions: amount of applied herbicide 320 g/ha
Procedure, shortened: as §3

late watergrass = experiment: Test Example 2: herbicidal activity, application during weed generation under submerged conditions (Table 17, symbol A); type: in vivo, late watergrass (Echinochloa oryzicola); conditions: for herbicidal effect rating, A: late watergrass: AAH 320 g/ha, application during weed generation, submerged conditions
Procedure, shortened: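 Mixed weed seedlings in alluvial soil under a 4 cm water layer, greenhouse-grown at 25–30° C. Compound given as a diluted emulsion into the floodwater at the 1–2 leaf stage; response graded after three weeks.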

rice flat sedge = experiment: Test Example 3: herbicidal effect by foliage application, Wagner pot (Table 18, symbol E); type: in vivo, rice flat sedge (Cyperus iria); conditions: for Herbicidal effect on E (rice flat sedge), foliage application: amount of applied herbicide 320 g/ha
Procedure, shortened: as §1

southern crabgrass = experiment: Test Example 4: herbicidal effect by soil treatment (Table 19, symbol F); type: in vivo, southern crabgrass (Digitaria ciliaris); conditions: amount of applied herbicide 320 g/ha
Procedure, shortened: as §3

Chinese sprangletop = experiment: Test Example 3: herbicidal effect by foliage application, Wagner pot (Table 18, symbol D); type: in vivo, chinese sprangletop (Leptochloa chinensis); conditions: for Herbicidal effect on D (Chinese sprangletop), foliage application: amount of applied herbicide 320 g/ha
Procedure, shortened: as §1

windgrass = experiment: Test Example 4: herbicidal effect by soil treatment (Table 19, symbol L); type: in vivo, windgrass (Apera spica-venti); conditions: amount of applied herbicide 320 g/ha
Procedure, shortened: as §3

redroot pigweed = experiment: Test Example 5: herbicidal effect by foliage application, plastic box (Table 20, symbol N); type: in vivo, redroot pigweed (Amaranthus retroflexus); conditions: foliage application, 320 g/ha, evaluated 3 weeks after application
Procedure, shortened: as §2

[3] = evaluated 3 weeks after application

Row | Structure (SMILES) | Herbicidal effect, C: oval-leafed pondweed (oval-leafed pondweed) | herbicidal effect on barnyard grass (H) (barnyard grass [1]; 320 g/ha) | herbicidal effect on lambsquarters (O) (lambsquarters) | H: barnyard grass, herbicidal effect grade (barnyard grass [2]) | herbicidal effect on persian speedwell (R) (persian speedwell) | P: chickweed, herbicidal effect grade (chickweed) | herbicidal effect rating, A: late watergrass (late watergrass) | herbicidal effect on rice flat sedge (E) (rice flat sedge; 320 g/ha) | F: southern crabgrass, herbicidal effect grade (southern crabgrass) | herbicidal effect on Chinese sprangletop (D) (Chinese sprangletop; 320 g/ha) | L: windgrass, herbicidal effect grade (windgrass) | Herbicidal effect on H (barnyard grass), foliage application (barnyard grass [1]) | Herbicidal effect on E (rice flat sedge), foliage application (rice flat sedge) | Herbicidal effect on D (Chinese sprangletop), foliage application (Chinese sprangletop) | O (lambsquarters) herbicidal effect grade (lambsquarters; [3]) | R (persian speedwell) herbicidal effect grade (persian speedwell; [3]) | herbicidal effect grade, A: late watergrass (late watergrass; application during weed generation under submerged conditions, amount of applied herbicide 320 g/ha) | N (redroot pigweed) herbicidal effect grade (redroot pigweed)
1 | CCOc1ccccc1-c1sc2cc(C)c(C)cc2c1-c1c(O)c(C)nn(C)c1=O [5-094] | 4 (Herbicidal rate of 70% or more and less than 90%) | 5 (Herbicidal rate of 90% or more (almost completely withered)) | 4 (Herbicidal rate of 70% or more and less than 90%) | 1 (Herbicidal rate of 5% or more and less than 20%) | 5 (Herbicidal rate of 90% or more (almost completely withered)) | 1 (Herbicidal rate of 5% or more and less than 20%) | 2 (Herbicidal rate of 20% or more and less than 40%) | 4 (Herbicidal rate of 70% or more and less than 90%) | 4 (Herbicidal rate of 70% or more and less than 90%) | 3 (Herbicidal rate of 40% or more and less than 70%) | 3 (Herbicidal rate of 40% or more and less than 70%) | – | – | – | – | – | – | –
2 | CCCOc1ccc(-c2oc3ccccc3c2-c2c(O)c(C)nn(C)c2=O)cc1 [8-003] | 5 (Herbicidal rate of 90% or more (almost completely withered)) | – | 3 (Herbicidal rate of 40% or more and less than 70%) | 5 (Herbicidal rate of 90% or more (almost completely withered)) | 5 (Herbicidal rate of 90% or more (almost completely withered)) | 1 (Herbicidal rate of 5% or more and less than 20%) | 4 (Herbicidal rate of 70% or more and less than 90%) | – | 3 (Herbicidal rate of 40% or more and less than 70%) | – | 0 (Herbicidal rate of 5% or less (almost no effect)) | 5 (Herbicidal rate of 90% or more (almost completely withered)) | 4 (Herbicidal rate of 70% or more and less than 90%) | 3 (Herbicidal rate of 40% or more and less than 70%) | – | – | – | –
3 | COCCOc1ccc(-c2oc3ccc(C)cc3c2-c2c(O)c(C)nn(C)c2=O)cc1 [9-063] | 5 (Herbicidal rate of 90% or more (almost completely withered)) | – | – | 5 (Herbicidal rate of 90% or more (almost completely withered)) | – | 4 (Herbicidal rate of 70% or more and less than 90%) | – | – | 5 (Herbicidal rate of 90% or more (almost completely withered)) | – | – | 5 (Herbicidal rate of 90% or more (almost completely withered)) | 4 (Herbicidal rate of 70% or more and less than 90%) | 3 (Herbicidal rate of 40% or more and less than 70%) | 5 (Herbicidal rate of 90% or more (almost completely withered)) | 5 (Herbicidal rate of 90% or more (almost completely withered)) | 5 (Herbicidal rate of 90% or more (almost completely withered)) | 5 (Herbicidal rate of 90% or more (almost completely withered))
